The values that follow come from patent US9670209B2 (ACADIA Pharmaceuticals Inc., priority 2013, dated 2017).

Structures are written as SMILES. Marks after values point to notes of the source that are not given here. Where only a bound is given, the exact number is not on record here.

Series [1] concerns the target human M1 muscarinic acetylcholine receptor (Homo sapiens (Human), UniProt P11229). As to the kind of experiment: R-SAT (Receptor Selection and Amplification) assay, M1. In kind it is cell-based. To be noted: for M1 PEC50 AVG: NIH-3T3 cells; for Emax: read-out: M1 EFF % AVG. As for the experimental part: (§1) Briefly, NIH-3T3 cells were grown in 96-well tissue culture plates to 70% to 80% confluence. Cells were transfected with plasmid DNAs using Superfect Reagent (QIAGEN, Valencia, Calif.) as per the manufacturer's protocols. […] Cells were then grown in a humidified atmosphere with 5% ambient CO2 for 4 to 6 days. Media were then removed from the plates, and beta-galactosidase activity was measured by the addition of o-nitrophenyl-D-galactopyranoside (in phosphate-buffered saline with 5% NP-40 detergent). […] All data represent the mean of three wells and were analyzed using the computer program Excel Fit, and EC50 determinations were made using least-squares fit analysis with GraphPad Software Inc. (San Diego, Calif.) software.

Series [2] concerns the target human M2 muscarinic acetylcholine receptor (Homo sapiens (Human), UniProt P08172). As to the kind of experiment: R-SAT (Receptor Selection and Amplification) assay, M2. It is filed as cell-based. As to conditions: for M2 PEC50 AVG: NIH-3T3 cells; for Emax: read-out: M2 EFF % AVG. Here is the method:
as §1

Series [3] addresses human M3 muscarinic acetylcholine receptor (Homo sapiens (Human), UniProt P20309). As to the kind of experiment: R-SAT (Receptor Selection and Amplification) assay, M3. It is filed as cell-based. To be noted: for M3 PEC50 AVG: NIH-3T3 cells; for Emax: read-out: M3 EFF % AVG. Here is the method:
as §1

The next series addresses M1 muscarinic receptor (Homo sapiens (Human), UniProt P11229). As to the kind of experiment: M1 GTPγS binding assay.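 As to Emax: efficacy relative to carbachol as 100%.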 In kind it is biochemical. To be noted: for Emax: read-out: M1 GTPγS EFF % AVG. On the technique in general: GTPγS resists hydrolysis and so accumulates on activated G proteins.
For the next series, the system named is tear secretion. In words: Tear secretion (phenol red thread) in mice. In kind it is in vivo, balb/c mice. As to conditions: for Effects on tear secretion compared to Comparative Compound 2: other studies using the same method (Table 2), statistically significant compared to vehicle. As for the experimental part: The tear distance, in mm, is recorded. The mice were not anesthetized or otherwise sedated. […] Data are analyzed by repeated measures ANOVA with post-hoc Bonferroni comparisons to vehicle. […] Further details can be seen in FIG. 2.

The nature of series [4]: Ocular pharmacokinetic evaluation in rabbits. In kind it is in vivo, New Zealand White rabbits. As for the experimental part:
The experimental animals were normotensive male New Zealand White rabbits. A single drop (35 μl) of a compound, (302s), at a concentration of 0.126% (corrected for oxalate salt weight) was administered to each eye by pipette. At 0.25, 0.5, 1, 2, 4, 8, and 24 hours, plasma, aqueous humor, vitreous humor, cornea, iris-ciliary body, retina, and choroid were collected (2 rabbits/timepoint, or 4 eyes/timepoint). Approximately 0.5 ml of blood was collected and placed in EDTA tubes. Blood samples were kept on ice during the duration of sample collection, and centrifuged to harvest plasma. Animals were euthanized and ocular tissues were collected and placed in vials and kept on dry ice for the duration of the collections. All ocular tissue and plasma samples were stored at or below −60° C. until bioanalysis. […] The plasma concentration at most timepoints was >100-fold lower than the compound concentration in target ocular tissues (iris/ciliary body, cornea, retina). The concentration of compound 302s in the target ocular tissues remained at active levels up to at least 24 h. Abbreviations used in FIG. 3 have the following meanings AH (Aqueous Humor), VH (Vitreous Humor) ICB (Iris Ciliary Body), CenP Retina (Center Punch Retina), Per Retina (Peripheral Retina) CenP Choroid (Center Punch Choroid), and Per Choroid (Peripheral Choroid)

[5] abbreviates: percent efficacy vs carbachol = 100 percent.
Where [6] appears, read: R-SAT, percent efficacy vs carbachol = 100 percent.
Where [7] appears, read: first study of Table 2, 1 hr post-dosing, 5 μl drop of 0.1% to each eye.
Setting [8] is: second study of Table 2, 1 hr post-dosing, 5 μl drop of 0.1% to each eye.
[9] abbreviates: second study of Table 2, 3 hr post-dosing, 5 μl drop of 0.1% to each eye.
[10] abbreviates: third study (pilocarpine 24-hour study), 3 hr post-dosing, 0.1% 5 μl drop, Pilocarpine 0.2% 20 μl drop.
[11] abbreviates: third study (pilocarpine 24-hour study), 6 hr post-dosing, 0.1% 5 μl drop, Pilocarpine 0.2% 20 μl drop.
Setting [12] is: third study (pilocarpine 24-hour study), 24 hr post-dosing, 0.1% 5 μl drop, Pilocarpine 0.2% 20 μl drop.
The mark [13] stands for this setting: pilocarpine 24-hour study, 3 and 6 hours post-dosing.

Chain of human M1 muscarinic acetylcholine receptor (P11229 whole entry): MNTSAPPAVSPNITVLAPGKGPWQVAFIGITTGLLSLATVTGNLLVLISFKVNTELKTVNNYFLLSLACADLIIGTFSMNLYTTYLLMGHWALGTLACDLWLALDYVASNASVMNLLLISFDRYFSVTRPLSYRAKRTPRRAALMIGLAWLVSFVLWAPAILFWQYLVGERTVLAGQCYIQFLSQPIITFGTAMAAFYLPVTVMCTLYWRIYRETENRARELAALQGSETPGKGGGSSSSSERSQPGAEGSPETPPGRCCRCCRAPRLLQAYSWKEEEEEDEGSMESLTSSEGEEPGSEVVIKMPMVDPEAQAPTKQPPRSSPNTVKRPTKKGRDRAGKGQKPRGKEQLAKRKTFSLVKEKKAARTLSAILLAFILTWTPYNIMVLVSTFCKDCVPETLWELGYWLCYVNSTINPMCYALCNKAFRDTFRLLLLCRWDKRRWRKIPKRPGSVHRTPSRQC
Chain of M1 muscarinic receptor (P11229 whole entry): as above
Chain of human M3 muscarinic acetylcholine receptor (P20309 whole entry): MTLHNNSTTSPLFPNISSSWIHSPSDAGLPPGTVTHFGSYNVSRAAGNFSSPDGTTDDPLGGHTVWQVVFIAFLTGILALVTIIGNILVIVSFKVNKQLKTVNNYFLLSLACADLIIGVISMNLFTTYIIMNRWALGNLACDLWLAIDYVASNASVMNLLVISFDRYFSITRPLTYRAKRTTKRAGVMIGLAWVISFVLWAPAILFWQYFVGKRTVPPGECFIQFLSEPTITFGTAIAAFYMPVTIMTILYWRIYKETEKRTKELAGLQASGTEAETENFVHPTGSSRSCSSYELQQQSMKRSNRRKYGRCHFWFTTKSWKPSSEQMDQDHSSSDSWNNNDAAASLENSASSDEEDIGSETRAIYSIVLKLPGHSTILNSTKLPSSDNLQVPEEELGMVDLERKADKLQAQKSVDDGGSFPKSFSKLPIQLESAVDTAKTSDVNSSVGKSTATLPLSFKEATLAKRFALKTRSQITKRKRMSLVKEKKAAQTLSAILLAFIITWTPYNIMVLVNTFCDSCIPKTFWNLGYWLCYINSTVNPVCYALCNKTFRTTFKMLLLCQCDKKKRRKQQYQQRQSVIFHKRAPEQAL
Chain of human M2 muscarinic acetylcholine receptor (P08172 whole entry): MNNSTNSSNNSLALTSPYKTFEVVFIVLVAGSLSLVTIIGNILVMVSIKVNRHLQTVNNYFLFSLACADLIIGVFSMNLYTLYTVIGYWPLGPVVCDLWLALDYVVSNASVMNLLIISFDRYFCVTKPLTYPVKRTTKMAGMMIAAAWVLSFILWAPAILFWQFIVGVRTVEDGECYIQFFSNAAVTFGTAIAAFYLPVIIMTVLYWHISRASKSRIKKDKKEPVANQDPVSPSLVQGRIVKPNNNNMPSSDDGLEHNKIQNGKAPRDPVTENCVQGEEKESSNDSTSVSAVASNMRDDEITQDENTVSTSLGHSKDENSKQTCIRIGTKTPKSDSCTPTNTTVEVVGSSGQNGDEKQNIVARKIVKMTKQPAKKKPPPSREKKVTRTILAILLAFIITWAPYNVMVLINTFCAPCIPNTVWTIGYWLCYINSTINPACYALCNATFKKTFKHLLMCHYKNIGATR

Take `CC(C)(C)OC(=O)N1C2CC[C@H]1C[C@@H](O)C2` [Comparative compound 2, reference compound]: in series [1], the “M1 PEC50 AVG” value worked out at 9.0. The “M1 EFF % AVG” value in series [1] (setting [5]) amounted to 126%. The “M2 PEC50 AVG” value in series [2] (R-SAT) was found to be 7.1. In addition, the “M2 EFF % AVG” value in series [2] (setting [6]) was determined as 52%. The “M3 PEC50 AVG” value in series [3] (R-SAT) came to 7.1. In addition, the “M3 EFF % AVG” value in series [3] (setting [6]) amounted to 30%. In addition, the “M1 GTPγS PEC50 AVG” value on M1 muscarinic receptor (GTPγS binding) is given as 7.9. In addition, the “M1 GTPγS EFF % AVG” value at M1 muscarinic receptor (GTPγS binding, percent efficacy vs carbachol = 100 percent) amounted to 32%. Also, the Tear secretion in the series with tear secretion (setting [7]) is reported as 149% *; with tear secretion (setting [8]), 113%; in the series with tear secretion (setting [9]), 123%; in the series with tear secretion (setting [10]) it was 134%; in the series on tear secretion (setting [11]), 110%; in the series on tear secretion (setting [12]), 98%. The “Effect on tear secretion compared to vehicle” value in the series with tear secretion (pilocarpine 24-hour study) is on record as “not significantly different from vehicle”.
For the molecule `C[C@H](CN1[C@@H]2CC[C@H]1C[C@@H](OCC1CC1)C2)Cn1ncc2ccccc21` [Compound 302S, 1-((R)-3-((1R,3R,5S)-3-(cyclopropylmethoxy)-8-azabicyclo[3.2.1]octan-8-yl)-2-methylpropyl)-1H-indazole], the “M1 PEC50 AVG” value in series [1] worked out at 8.9. Further, the Emax in series [1] (setting [5]) stood at 111%; in series [2], 153%; in series [3] it was 12%; at M1 muscarinic receptor, 98%. Besides, in series [2] (R-SAT), the “M2 PEC50 AVG” value was determined as 7.6. Moreover, the “M3 PEC50 AVG” value in series [3] (R-SAT) is 6.8. Besides, the “M1 GTPγS PEC50 AVG” value at M1 muscarinic receptor (GTPγS binding) is on record as 8.5. Besides, the Tear secretion with tear secretion (setting [7]) was determined as 156% *; in the series on tear secretion (setting [8]) it was 157% *; with tear secretion (setting [9]) it was 155% *; with tear secretion (setting [10]), 152% *; in the series on tear secretion (setting [11]), 151% *; in the series with tear secretion (setting [12]), 120% †. Besides, the “Tear secretion compared to vehicle” value in the series on tear secretion (setting [13]) was “statistically significant improved tear secretion”; in the series on tear secretion (pilocarpine 24-hour study, 24 hours post-dosing), “trend toward significance”. Also, the “Enhancement of tear secretion compared to pilocarpine” value with tear secretion (pilocarpine 24-hour study, all time points) is “exceeded the effect of pilocarpine at all time points”. Also, the Kp in series [4] (male, New Zealand White, rabbit, retina (against plasma), topical, 35 μl of 0.126% per eye, most timepoints, iris/ciliary body, cornea, retina, read-out: Plasma concentration lower than concentration in target ocular tissues) is more than 100. Also, the Tmax (commonly the time from dosing to the highest level) in series [4] (male, New Zealand White, rabbit, topical, 35 μl of 0.126% per eye, all tissues, single 35 μl drop of 0.126% to each eye) turned out to be 15 min. Further, the Cmax in series [4] (male, New Zealand White, rabbit, topical, 35 μl of 0.126% per eye, plasma, single 35 μl drop of 0.126% to each eye, read-out: Maximal plasma concentration (Cmax)) was 6.4 ng/g. The “Time the concentration in the target ocular tissues remained at active levels” value in series [4] (target ocular tissues, single topical drop) is listed as “at least 24 h”.
For `COCC[C@H]1C[C@H]2CC[C@@H](C1)N2C[C@@H](C)Cn1ncc2ccccc21` [Compound 303S, 1-((R)-3-((1R,3R,5S)-3-(2-Methoxyethyl)-8-azabicyclo[3.2.1]octan-8-yl)-2-methylpropyl)-1H-indazole], the “M1 PEC50 AVG” value in series [1] is recorded as 8.4. Besides, the Emax amounted to 121% in series [1] (setting [5]), 102% in series [2], 8% in series [3] and 67% on M1 muscarinic receptor. In series [2] (R-SAT), the “M2 PEC50 AVG” value was determined as 7.1. Also, on M1 muscarinic receptor, a half-maximal response (EC50) required 63.1 nM. For the same molecule, the “Effects on tear secretion compared to Comparative Compound 2” value with tear secretion was “greater than that of Comparative Compound 2”. The Tear secretion with tear secretion (setting [8]) worked out at 131%; in the series on tear secretion (setting [9]), 134% *.
Regarding `C=CCO[C@H]1C[C@H]2CC[C@@H](C1)N2C[C@@H](C)Cn1ncc2ccccc21` [Compound 305, 1-((R)-3-((1R,3R,5S)-3-(Allyloxy)-8-azabicyclo[3.2.1]octan-8-yl)-2-methylpropyl)-1H-indazole], the “M1 PEC50 AVG” value in series [1] came out at 8.1. Besides, the Emax in series [1] (setting [5]) turned out to be 115%; in series [2] it was 107%; in series [3], 4%; on M1 muscarinic receptor, 70%. Moreover, the “M2 PEC50 AVG” value in series [2] (R-SAT) is listed as 6.9. For the same molecule, at M1 muscarinic receptor, the midpoint of the response, the EC50, lay at 79.4 nM. In addition, in the series with tear secretion (setting [7]), the Tear secretion turned out to be 163% *. For the same molecule, the “Effects on tear secretion compared to Comparative Compound 2” value in the series on tear secretion is recorded as “greater than that of Comparative Compound 2”.
Take `CCOCC[C@H]1C[C@H]2CC[C@@H](C1)N2C[C@@H](C)Cn1ncc2ccc(C)cc21` [Compound 324, 1-((R)-3-((1R,3R,5S)-3-(2-ethoxyethyl)-8-azabicyclo[3.2.1]octan-8-yl)-2-methylpropyl)-6-methyl-1H-indazole]: in series [1], the “M1 PEC50 AVG” value worked out at 9.1. The Emax in series [1] (setting [5]) was determined as 82%; in series [2], 45%; in series [3], 17%; on M1 muscarinic receptor, 31%. Besides, in series [2] (R-SAT), the “M2 PEC50 AVG” value turned out to be 7.9. The EC50 (commonly the concentration that produces a half-maximal response) at M1 muscarinic receptor is 6.31 nM.
Turning to `CC[C@@H]1C(=O)OC[C@@H]1Cc1cncn1C` [Pilocarpine, reference compound], the “Tear secretion compared to vehicle” value with tear secretion (setting [13]) is “statistically significant improved tear secretion”. Further, the values for the Tear secretion in the series on tear secretion (setting [10]), with tear secretion (setting [11]) and in the series on tear secretion (setting [12]) were 142% *, 136% * and 113%, respectively.
